The source of these data is US9221756B2, “Pyrrole derivatives” (priority 2011, dated 2015).

Structures are written as SMILES.

pneumolysin, sequence (Q04IN8 whole entry): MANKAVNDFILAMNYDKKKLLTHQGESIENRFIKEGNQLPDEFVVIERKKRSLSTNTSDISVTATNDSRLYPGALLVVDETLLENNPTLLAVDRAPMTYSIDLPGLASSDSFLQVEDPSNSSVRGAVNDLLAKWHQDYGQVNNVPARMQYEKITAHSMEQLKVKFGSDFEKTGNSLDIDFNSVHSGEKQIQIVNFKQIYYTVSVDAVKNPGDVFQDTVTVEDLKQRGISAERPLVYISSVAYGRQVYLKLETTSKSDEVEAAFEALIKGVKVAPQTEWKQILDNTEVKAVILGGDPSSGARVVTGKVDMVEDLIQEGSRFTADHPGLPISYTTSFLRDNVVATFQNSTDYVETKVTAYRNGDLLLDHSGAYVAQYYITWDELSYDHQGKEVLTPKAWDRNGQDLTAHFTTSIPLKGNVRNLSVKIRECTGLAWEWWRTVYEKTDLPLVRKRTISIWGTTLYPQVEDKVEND

The first experiment concerns the target pneumolysin (Streptococcus pneumoniae serotype 2, UniProt Q04IN8). The experiment is described as follows: Inhibition of the haemolytic activity of pneumolysin (sheep erythrocytes). Format: cell-based. The following applies: IC50, inhibition of pneumolysin-induced haemolysis of sheep erythrocytes; class symbols of Table 1.
Broadly, the IC50 is the point on the concentration scale where inhibition reaches its midpoint. For the compound `CN(C)C(=O)c1c(OCc2ccccc2)c(OCc2ccccc2)c(C(=O)N(C)C)n1-c1ccc(C(F)(F)F)cc1` [UL1-054, 3,4-bis(benzyloxy)-N^2,N^2,N^5,N^5-tetramethyl-1-(4-(trifluoromethyl)phenyl)-1H-pyrrole-2,5-dicarboxamide], the IC50 is 10 to 20 µM.

`CCNC(=O)c1c(OCc2ccccc2)c(OCc2ccccc2)c(C(=O)N(C)C)n1-c1ccc(OC)cc1` [UL1-055, 3,4-bis(benzyloxy)-N^2-ethyl-1-(4-methoxyphenyl)-N^5,N^5-dimethyl-1H-pyrrole-2,5-dicarboxamide] had an IC50 of 10 to 20 µM.

In the case of `COc1ccc(-n2c(C(=O)N(C)C)c(OCc3ccccc3)c(OCc3ccccc3)c2C(=O)N2CCN(C)CC2)cc1` [UL1-056, 3,4-bis(benzyloxy)-1-(4-methoxyphenyl)-N,N-dimethyl-5-(4-methylpiperazine-1-carbonyl)-1H-pyrrole-2-carboxamide], the IC50 fell in the range of 10 to 20 µM.

The compound `COc1ccc(-n2c(C(=O)N(C)C)c(OCc3ccccc3)c(OCc3ccccc3)c2C(=O)N2CCCCC2)cc1` [UL1-057, 3,4-bis(benzyloxy)-1-(4-methoxyphenyl)-N,N-dimethyl-5-(piperidine-1-carbonyl)-1H-pyrrole-2-carboxamide] registered an IC50 of less than 10 µM.

With `COc1ccc(-n2c(C(=O)N(C)C)c(OCc3ccccc3)c(OCc3ccccc3)c2C(=O)N2CCOCC2)cc1` [UL1-058, 3,4-bis(benzyloxy)-1-(4-methoxyphenyl)-N,N-dimethyl-5-(morpholine-4-carbonyl)-1H-pyrrole-2-carboxamide], the IC50 lay within 20 to 60 µM.

Regarding `COc1ccc(-n2c(C(=O)N3CCN(C(C)=O)CC3)c(OCc3ccccc3)c(OCc3ccccc3)c2C(=O)N2CCN(C(C)=O)CC2)cc1` [UL1-059, 1,1′-(4,4′-(3,4-bis(benzyloxy)-1-(4-methoxyphenyl)-1H-pyrrole-2,5-dicarbonyl)bis(piperazine-4,1-diyl))diethanone], the IC50 lay within 20 to 60 µM.

`CCOC(=O)c1c(OCc2ccccc2)c(OCc2ccccc2)c(C#N)n1-c1ccc(F)cc1` [UL1-060, ethyl 3,4-bis(benzyloxy)-5-cyano-1-(4-fluorophenyl)-1H-pyrrole-2-carboxylate] returned an IC50 of 20 to 60 µM.

Take `CN(C)C(=O)c1c(OCc2ccccc2)c(OCc2ccccc2)c(C#N)n1-c1ccc(F)cc1` [UL1-061, 3,4-bis(benzyloxy)-5-cyano-1-(4-fluorophenyl)-N,N-dimethyl-1H-pyrrole-2-carboxamide]: the IC50 is less than 10 µM.

Compound `CCOC(=O)c1c(OCc2ccccc2)c(OCc2ccccc2)c(C(=O)N(C)C)n1-c1ccc(I)cc1` [UL1-062, ethyl 3,4-bis(benzyloxy)-5-(dimethylcarbamoyl)-1-(4-iodophenyl)-1H-pyrrole-2-carboxylate] gave an IC50 of less than 10 µM.

Take `COc1ccc(-n2c(C(N)=O)c(OCc3ccccc3)c(OCc3ccccc3)c2C(N)=O)cc1` [UL1-072, 3,4-bis(benzyloxy)-1-(4-methoxyphenyl)-1H-pyrrole-2,5-dicarboxamide]: the IC50 fell in the range of 20 to 60 µM.

In turn, `COc1ccc(-n2c(C(N)=O)c(O)c(O)c2C(N)=O)cc1` [UL1-073, 3,4-dihydroxy-1-(4-methoxyphenyl)-1H-pyrrole-2,5-dicarboxamide] showed an IC50 of less than 10 µM.

As for `CCNC(=O)c1c(OCc2ccccc2)c(OCc2ccccc2)c(C(=O)NCC)n1-c1ccc(OC)cc1` [UL1-074, 3,4-bis(benzyloxy)-N2,N5-diethyl-1-(4-methoxyphenyl)-1H-pyrrole-2,5-dicarboxamide], the IC50 lay in the range of 20 to 60 µM.

`NC(=O)c1c(OCc2ccccc2)c(OCc2ccccc2)c(C(N)=O)n1-c1ccc(F)cc1` [UL1-075, 3,4-bis(benzyloxy)-1-(4-fluorophenyl)-1H-pyrrole-2,5-dicarboxamide]: the IC50 fell in the range of 20 to 60 µM.

As to `NC(=O)c1c(O)c(O)c(C(N)=O)n1-c1ccc(F)cc1` [UL1-076, 1-(4-fluorophenyl)-3,4-dihydroxy-1H-pyrrole-2,5-dicarboxamide], the IC50 fell in the range of 10 to 20 µM.

`CCOc1ccc(-n2c(C(N)=O)c(O)c(O)c2C(N)=O)cc1` [UL1-077, 1-(4-ethoxyphenyl)-3,4-dihydroxy-1H-pyrrole-2,5-dicarboxamide] displayed an IC50 of 20 to 60 µM.

As to `CCNC(=O)c1c(O)c(O)c(C(=O)NCC)n1-c1ccc(OCC)cc1` [UL1-078, 1-(4-ethoxyphenyl)-N2,N5-diethyl-3,4-dihydroxy-1H-pyrrole-2,5-dicarboxamide], the IC50 was less than 10 µM.

In turn, `CCOC(=O)c1c(OCc2ccccc2)c(OCc2ccccc2)c(C(N)=O)n1-c1ccc(OC)cc1` [UL1-079, ethyl 3,4-bis(benzyloxy)-5-carbamoyl-1-(4-methoxyphenyl)-1H-pyrrole-2-carboxylate] registered an IC50 of less than 10 µM.

As for `CCOC(=O)c1c(O)c(O)c(C(N)=O)n1-c1ccc(OC)cc1` [UL1-080, ethyl 5-carbamoyl-3,4-dihydroxy-1-(4-methoxyphenyl)-1H-pyrrole-2-carboxylate], the IC50 is less than 10 µM.

Consider `CCOC(=O)c1c(OCc2ccccc2)c(OCc2ccccc2)c(-c2ccccc2OC)n1-c1ccc(OC)cc1` [UL1-081, ethyl 3,4-bis(benzyloxy)-5-(2-methoxyphenyl)-1-(4-methoxyphenyl)-1H-pyrrole-2-carboxylate], for which the IC50 lay in the range of 20 to 60 µM.

Compound `CCOC(=O)c1c(OCc2ccccc2)c(OCc2ccccc2)c(-c2ccccn2)n1-c1ccc(OC)cc1` [UL1-082, ethyl 3,4-bis(benzyloxy)-1-(4-methoxyphenyl)-5-(pyridin-2-yl)-1H-pyrrole-2-carboxylate] gave an IC50 of 10 to 20 µM.

Regarding `CCOC(=O)c1c(O)c(O)c(-c2ccccn2)n1-c1ccc(OC)cc1` [UL1-083, ethyl 3,4-dihydroxy-1-(4-methoxyphenyl)-5-(pyridin-2-yl)-1H-pyrrole-2-carboxylate], the IC50 was less than 10 µM.

In turn, `CCOC(=O)c1c(OCc2ccccc2)c(OCc2ccccc2)c(-c2ccncc2)n1-c1ccc(OC)cc1` [UL1-084, ethyl 3,4-bis(benzyloxy)-1-(4-methoxyphenyl)-5-(pyridin-4-yl)-1H-pyrrole-2-carboxylate] came in with an IC50 of less than 10 µM.

Regarding `CCOC(=O)c1c(OCc2ccccc2)c(OCc2ccccc2)c(-c2cccnc2)n1-c1ccc(OC)cc1` [UL1-085, ethyl 3,4-bis(benzyloxy)-1-(4-methoxyphenyl)-5-(pyridin-3-yl)-1H-pyrrole-2-carboxylate], the IC50 is less than 10 µM.

On to `CCOC(=O)c1c(O)c(O)c(-c2nc(CC)cs2)n1-c1ccc(OC)cc1` [UL1-086, ethyl 5-(4-ethylthiazol-2-yl)-3,4-dihydroxy-1-(4-methoxyphenyl)-1H-pyrrole-2-carboxylate], for which the IC50 is less than 10 µM.

`CCOC(=O)c1c(OCc2ccccc2)c(OCc2ccccc2)c(-c2nnc(C)o2)n1-c1ccc(OC)cc1` [UL1-087, ethyl 3,4-bis(benzyloxy)-1-(4-methoxyphenyl)-5-(5-methyl-1,3,4-oxadiazol-2-yl)-1H-pyrrole-2-carboxylate]: the IC50 was less than 10 µM.

On to `CCOC(=O)c1c(OCc2ccccc2)c(OCc2ccccc2)c(-c2nnc(CC)o2)n1-c1ccc(OC)cc1` [UL1-088, ethyl 3,4-bis(benzyloxy)-5-(5-ethyl-1,3,4-oxadiazol-2-yl)-1-(4-methoxyphenyl)-1H-pyrrole-2-carboxylate], for which the half-maximal inhibitory concentration (IC50) was in the range of 10 to 20 µM.

Consider `CCOC(=O)c1c(O)c(O)c(-c2nn[nH]n2)n1-c1ccc(OC)cc1` [UL1-089, ethyl 3,4-dihydroxy-1-(4-methoxyphenyl)-5-(2H-tetrazol-5-yl)-1H-pyrrole-2-carboxylate], for which the IC50 was less than 10 µM.

Turning to `CCOC(=O)c1c(OCc2ccccc2)c(OCc2ccccc2)c(-c2nn[nH]n2)n1-c1ccc(OC)cc1` [UL1-090, ethyl 3,4-bis(benzyloxy)-1-(4-methoxyphenyl)-5-(2H-tetrazol-5-yl)-1H-pyrrole-2-carboxylate], the IC50 was less than 10 µM.

Take `COc1ccc(-n2c(C(C)=O)c(O)c(O)c2C(=O)N(C)C)cc1` [UL1-091, 5-acetyl-3,4-dihydroxy-1-(4-methoxyphenyl)-N,N-dimethyl-1H-pyrrole-2-carboxamide]: the IC50 was less than 10 µM.

The compound `CCOC(=O)c1c(O)c(O)c(C(=O)N(C)C)n1-c1ccc(OCCOC)cc1` [UL1-093, ethyl 5-(dimethylcarbamoyl)-3,4-dihydroxy-1-(4-(2-methoxyethoxy)phenyl)-1H-pyrrole-2-carboxylate] yielded an IC50 of less than 10 µM.

As for `CCOC(=O)c1c(O)c(O)c(C(=O)N(C)C)n1-c1ccc(OCCOCCOCCOC)cc1` [UL1-095, ethyl 5-(dimethylcarbamoyl)-3,4-dihydroxy-1-(4-(2-(2-(2-methoxyethoxy)ethoxy)ethoxy)phenyl)-1H-pyrrole-2-carboxylate], the IC50 was less than 10 µM.

`CCOC(=O)c1c(O)c(O)c(C(=O)N(C)C)n1-c1ccc(OCCOCCOCCOCCOC)cc1` [UL1-096, ethyl 1-(4-(2,5,8,11-tetraoxatridecan-13-yloxy)phenyl)-5-(dimethylcarbamoyl)-3,4-dihydroxy-1H-pyrrole-2-carboxylate] gave an IC50 of less than 10 µM.

Turning to `CCOC(=O)c1c(O)c(O)c(C(=O)NC)n1-c1ccc(OC)cc1` [UL1-099, ethyl 3,4-dihydroxy-1-(4-methoxyphenyl)-5-(methylcarbamoyl)-1H-pyrrole-2-carboxylate], the IC50 was less than 10 µM.

As to `CCOC(=O)c1c(O)c(O)c(C(=O)N(C)C)n1-c1ccc(O)cc1` [UL1-100, ethyl 5-(dimethylcarbamoyl)-3,4-dihydroxy-1-(4-hydroxyphenyl)-1H-pyrrole-2-carboxylate], the IC50 was less than 10 µM.

For the compound `CCOC(=O)c1c(O)c(O)c(C(=O)N(C)C)n1-c1ccc(OP(=O)(O)O)cc1` [UL1-101, ethyl 5-(dimethylcarbamoyl)-3,4-dihydroxy-1-(4-(phosphonooxy)phenyl)-1H-pyrrole-2-carboxylate], the IC50 is less than 10 µM.

Staying with this experiment, now noted: IC50, inhibition of pneumolysin-induced haemolysis of sheep erythrocytes; specific values.
`CCOC(=O)c1c(O)c(O)c(-c2nn[nH]n2)n1-c1ccc(OC)cc1` [UL1-089, ethyl 3,4-dihydroxy-1-(4-methoxyphenyl)-5-(2H-tetrazol-5-yl)-1H-pyrrole-2-carboxylate] gave an IC50 of 0.4 µM.

The experiment is the same for the next values; noted with them: inhibition of pneumolysin-induced haemolysis of sheep erythrocytes; class symbols of Table 1; read-out: IC50.
With `CCOC(=O)c1c(O)c(OP(=O)(OCC)OCC)c(C(=O)N(C)C)n1-c1ccc(OC)cc1` [UL1-097, ethyl 4-((diethoxyphosphoryl)oxy)-5-(dimethylcarbamoyl)-3-hydroxy-1-(4-methoxyphenyl)-1H-pyrrole-2-carboxylate], the 50% inhibitory concentration (IC50) is more than 60 µM.
